Laboratory results reported in patent publication US12448369B2 (Edgewise Therapeutics, Inc., priority 2023, dated 2025).
Values belong to the compound of their own block, whether it stands above or below them.

Assays:
[1] = system: Porcine atria myofibrils (atrial myosin ATPase); assay: Myofibril ATPase assay, porcine atria myofibrils; format: biochemical
In short: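 Atrial myofibril ATPase measured by NADH-coupled absorbance at 340 nm; vehicle-normalized slopes fitted to give Y75 or Y125 values.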

[2] = biological target: T1, Porcine ventricle myofibrils (ventricular myosin ATPase) (Sus scrofa, UniProt P79293); assay: Myofibril ATPase assay, porcine ventricle myofibrils; format: biochemical, porcine (Yucatan minipigs)
T1 construct: Myofibrils from porcine cardiac muscle was isolated from the left ventricle of Yucatan minipigs; tissue Exemplar Genetics; host or cells: left ventricle of Yucatan minipigs, myofibrils prepared in house
T1 sequence (P79293 whole entry): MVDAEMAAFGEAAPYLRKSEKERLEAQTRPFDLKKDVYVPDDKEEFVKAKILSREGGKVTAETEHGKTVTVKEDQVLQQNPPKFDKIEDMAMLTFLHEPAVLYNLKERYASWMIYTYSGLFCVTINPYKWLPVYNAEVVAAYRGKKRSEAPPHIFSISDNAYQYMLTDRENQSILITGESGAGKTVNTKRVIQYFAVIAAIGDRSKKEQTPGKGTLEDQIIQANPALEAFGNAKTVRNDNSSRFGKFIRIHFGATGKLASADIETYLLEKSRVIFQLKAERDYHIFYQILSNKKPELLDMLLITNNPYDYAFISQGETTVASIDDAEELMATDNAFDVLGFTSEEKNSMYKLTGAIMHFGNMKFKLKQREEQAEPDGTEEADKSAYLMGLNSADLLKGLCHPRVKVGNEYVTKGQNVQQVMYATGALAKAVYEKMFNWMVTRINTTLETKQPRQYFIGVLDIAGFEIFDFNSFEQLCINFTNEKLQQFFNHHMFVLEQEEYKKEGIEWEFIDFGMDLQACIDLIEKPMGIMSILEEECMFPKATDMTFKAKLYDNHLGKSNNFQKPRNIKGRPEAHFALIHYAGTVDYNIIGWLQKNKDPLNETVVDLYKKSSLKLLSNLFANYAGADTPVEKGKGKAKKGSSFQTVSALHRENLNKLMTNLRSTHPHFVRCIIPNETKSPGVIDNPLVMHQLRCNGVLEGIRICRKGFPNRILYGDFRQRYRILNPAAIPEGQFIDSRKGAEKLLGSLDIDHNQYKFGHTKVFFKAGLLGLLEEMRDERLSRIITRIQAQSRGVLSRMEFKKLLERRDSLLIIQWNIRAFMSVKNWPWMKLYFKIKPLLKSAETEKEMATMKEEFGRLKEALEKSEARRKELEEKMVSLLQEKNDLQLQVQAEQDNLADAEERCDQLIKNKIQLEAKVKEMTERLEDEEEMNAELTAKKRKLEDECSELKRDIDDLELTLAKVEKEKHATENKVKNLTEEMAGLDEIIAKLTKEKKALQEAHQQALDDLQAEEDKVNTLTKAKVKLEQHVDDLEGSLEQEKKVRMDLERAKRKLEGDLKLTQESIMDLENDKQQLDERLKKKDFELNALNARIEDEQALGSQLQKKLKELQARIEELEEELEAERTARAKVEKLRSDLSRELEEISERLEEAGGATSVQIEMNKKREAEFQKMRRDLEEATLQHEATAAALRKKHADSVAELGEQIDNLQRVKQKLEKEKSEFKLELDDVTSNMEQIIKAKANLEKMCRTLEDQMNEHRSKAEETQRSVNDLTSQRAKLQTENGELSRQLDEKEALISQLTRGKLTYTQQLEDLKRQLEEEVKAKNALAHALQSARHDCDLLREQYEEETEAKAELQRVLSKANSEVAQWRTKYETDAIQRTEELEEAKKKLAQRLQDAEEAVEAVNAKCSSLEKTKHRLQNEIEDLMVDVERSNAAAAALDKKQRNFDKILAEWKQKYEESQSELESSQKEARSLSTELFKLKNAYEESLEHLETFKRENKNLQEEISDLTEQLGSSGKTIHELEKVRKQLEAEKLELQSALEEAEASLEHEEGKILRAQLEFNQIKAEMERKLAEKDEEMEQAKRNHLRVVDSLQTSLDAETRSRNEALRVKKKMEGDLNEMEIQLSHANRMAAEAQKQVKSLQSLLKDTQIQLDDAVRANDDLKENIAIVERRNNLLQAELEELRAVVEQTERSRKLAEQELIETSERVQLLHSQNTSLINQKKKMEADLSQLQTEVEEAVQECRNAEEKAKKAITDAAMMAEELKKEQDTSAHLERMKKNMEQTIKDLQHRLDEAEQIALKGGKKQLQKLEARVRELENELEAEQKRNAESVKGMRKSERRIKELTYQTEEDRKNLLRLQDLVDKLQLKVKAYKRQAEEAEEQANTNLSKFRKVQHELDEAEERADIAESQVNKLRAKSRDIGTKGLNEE
In short: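 ATPase activity of porcine left-ventricular myofibrils is tracked as the slope of NADH loss at 340 nm through a PK/LDH couple. Values are the concentrations that bring activity to 75% (inhibitors) or 125% (activators) of vehicle.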

[3] = system: Rabbit Psoas myofibrils (skeletal myosin ATPase); assay: Myofibril ATPase assay, rabbit psoas (skeletal) myofibrils; format: biochemical
In short: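 Values derive from concentration–response fits of NADH consumption rates at 340 nm, normalized to vehicle-only wells, as Y75 or Y125. Myofibril ATP turnover was linked to NADH via PK/LDH in Ca/EGTA-buffered PIPES, pH 7.0, and read over 75 min.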

[4] = Y75 value (no ‡ mark), porcine atria myofibrils
[5] = Y75 value (no ‡ mark), porcine ventricle myofibrils
[6] = Y75 value (no ‡ mark), rabbit psoas myofibrils
[7] = porcine atria myofibrils, Y75 value (75% activity relative to no compound)
[8] = porcine ventricle myofibrils, Y75 value
[9] = rabbit psoas myofibrils, Y75 value

- Atrial EC25 [1, 4]: 0.09 µM
- Ventricular EC25 [2, 5]: 0.08 µM
- Skeletal EC25 [3, 6]: 0.02 µM
Compound: Cc1nc(C#N)cnc1[C@H](C)NC(=O)Cc1c(C)c2c(C#N)c(F)ccc2[nH]c1=O (single isomer, unassigned) [compound 2]

- Atrial EC25 [1, 4]: 0.04 µM
- Ventricular EC25 [2, 5]: 0.25 µM
- Skeletal EC25 [3, 6]: 0.05 µM
Compound: Cc1c(CC(=O)N[C@@H](C)c2ccc(F)cc2F)c(=O)[nH]c2ccc(Br)cc12 [compound 120]

- Atrial EC25 [1, 4]: 100.00 µM
- Ventricular EC25 [2, 5]: 100.00 µM
- Skeletal EC25 [3, 6]: 47.84 µM
Compound: Cc1c(O)ccc2[nH]c(=O)c(CC(=O)N[C@H](C)c3ncc(F)cc3F)cc12 (single isomer, unassigned) [compound 77]

- Atrial EC25 [1, 4]: 25.33 µM
- Ventricular EC25 [2, 5]: 47.78 µM
- Skeletal EC25 [3, 6]: 30.48 µM
Compound: C[C@@H](NC(=O)Cc1c(C#N)c2cc(F)c(F)cc2[nH]c1=O)c1ccc(C#N)cn1 (single isomer, unassigned) [compound 2047]

- Atrial EC25 [1, 7]: 0.71 µM
- Ventricular EC25 [2, 8]: 100.00 µM
- Skeletal EC25 [3, 9]: 0.25 µM
Compound: C[C@H](NC(=O)Cc1cc2c(OCC(F)F)nccc2[nH]c1=O)c1ccc(F)cc1F [compound 389]

- Atrial EC25 [1, 7]: 100.00 µM
- Ventricular EC25 [2, 8]: 100.00 µM
- Skeletal EC25 [3, 9]: 100.00 µM
Compound: C[C@H](NC(=O)[C@H](C)c1cc2nc(C#N)ccc2[nH]c1=O)c1ccc(F)cc1F (single isomer, unassigned) [compound 257]

- Atrial EC25 [1, 7]: 3.48 µM
- Ventricular EC25 [2, 8]: 100.00 µM
- Skeletal EC25 [3, 9]: 1.88 µM
Compound: C[C@H](NC(=O)Cc1cc2cnccc2[nH]c1=O)c1ccc(F)cc1F [compound 441]

- Atrial EC25 [1, 4]: 100.00 µM
- Ventricular EC25 [2, 5]: 100.00 µM
- Skeletal EC25 [3, 6]: 100.00 µM
Compound: C[C@@H](NC(=O)C1(c2cc3c(F)c(F)ccc3[nH]c2=O)CC1)c1nccc(C#N)n1 (single isomer, unassigned) [compound 2505]

- Atrial EC25 ([1]; Y75 value: concentration required to reduce myosin ATP-ase activity by 25%, Porcine Atria Prep pCa 25 GEOM_MEAN): 2.24 µM
- Ventricular EC25 ([2]; Y75 value: concentration required to reduce myosin ATP-ase activity by 25%, Porcine Ventricle Prep pCa 25 GEOM_MEAN): 2.08 µM
- Skeletal EC25 ([3]; Y75 value: concentration required to reduce myosin ATP-ase activity by 25%, Rabbit Psoas Prep pCa 25 GEOM_MEAN): 4.42 µM
Compound: C[C@H](NC(=O)Cc1cc2c(F)c(F)ccc2[nH]c1=O)c1nc(C#N)cs1 (single isomer, unassigned) [compound 4008]

- Atrial EC25 [1, 4]: 0.44 µM
- Ventricular EC25 [2, 5]: 3.04 µM
- Skeletal EC25 [3, 6]: 0.14 µM
Compound: Cc1c(CC(=O)N[C@@H](C)c2ncc(C#N)cc2F)c(=O)[nH]c2cc(F)ccc12 [compound 1079]

- Atrial EC25 [1, 4]: 100.00 µM
- Ventricular EC25 [2, 5]: 100.00 µM
- Skeletal EC25 [3, 6]: 29 µM
Compound: Cc1ccncc1[C@H](C)NC(=O)Cc1c(C)c2cc(F)ccc2[nH]c1=O [compound 1049]

- Atrial EC25 [1, 4]: 5.29 µM
- Ventricular EC25 [2, 5]: 11.94 µM
- Skeletal EC25 [3, 6]: 100.00 µM
Compound: Cc1c(CC(=O)N[C@@H](C)c2ncc(C#N)cn2)c(=O)[nH]c2ccc(F)cc12 [compound 1071]

- Atrial EC25 [1, 4]: 40.54 µM
- Ventricular EC25 [2, 5]: 8.06 µM
- Skeletal EC25 [3, 6]: 100.00 µM
Compound: C[C@@H](NC(=O)C(F)(F)c1cc2c(F)c(F)ccc2[nH]c1=O)c1cccc(C#N)n1 (single isomer, unassigned) [compound 2571]

The next lines start with the compound.

Compound: Cc1nc(C#N)ncc1[C@@H](C)NC(=O)Cc1c(C)c2c(C)nccc2[nH]c1=O [compound 464]
- Atrial EC25 [1, 7]: 0.37 µM
- Ventricular EC25 [2, 8]: 0.18 µM
- Skeletal EC25 [3, 9]: 0.03 µM

Compound: Cc1c(CC(=O)N[C@@H](C)c2ccc(F)cc2F)c(=O)[nH]c2ccnc(Nc3ccccc3)c12 [compound 278]
- Atrial EC25 [1, 7]: 17.26 µM
- Ventricular EC25 [2, 8]: 100.00 µM
- Skeletal EC25 [3, 9]: 2.73 µM

Compound: Cc1c(C(F)(F)C(=O)N[C@@H](C)c2ncc(C#N)cc2F)c(=O)[nH]c2ccc(F)cc12 (single isomer, unassigned) [compound 2607]
- Atrial EC25 [1, 4]: 0.07 µM
- Ventricular EC25 [2, 5]: 0.17 µM
- Skeletal EC25 [3, 6]: 0.04 µM

Compound: Cc1nccc2[nH]c(=O)c(CC(=O)N[C@H](C)c3ccc(C#N)cn3)c(C)c12 (single isomer, unassigned) [compound 253]
- Atrial EC25 [1, 7]: 100.00 µM
- Ventricular EC25 [2, 8]: 100.00 µM
- Skeletal EC25 [3, 9]: 100.00 µM

Compound: COc1cccc([C@H](C)NC(=O)Cc2c(C)c3c(C)nccc3[nH]c2=O)c1 (single isomer, unassigned) [compound 315]
- Atrial EC25 [1, 7]: 100.00 µM
- Ventricular EC25 [2, 8]: 100.00 µM
- Skeletal EC25 [3, 9]: 100.00 µM

Compound: Cc1c(CC(=O)N[C@H](C)c2ncc(C#N)cn2)c(=O)[nH]c2cc(F)ccc12 [compound 1040]
- Atrial EC25 [1, 4]: 6.01 µM
- Ventricular EC25 [2, 5]: 12 µM
- Skeletal EC25 [3, 6]: 52 µM

Compound: Cc1nccc2[nH]c(=O)c(CC(=O)N[C@H](C)c3ccccc3O)c(C)c12 (single isomer, unassigned) [compound 320]
- Atrial EC25 [1, 7]: 100.00 µM
- Ventricular EC25 [2, 8]: 100.00 µM
- Skeletal EC25 [3, 9]: 34.09 µM

Compound: Cc1c(CC(=O)N[C@H](C)c2ccc(C#N)cn2)c(=O)[nH]c2cccc(F)c12 [compound 53]
- Atrial EC25 [1, 4]: 1.93 µM
- Ventricular EC25 [2, 5]: 6.53 µM
- Skeletal EC25 [3, 6]: 0.31 µM

Compound: Cc1c(C2(C(=O)N[C@H](C)c3ncc(C#N)cc3F)CC2)c(=O)[nH]c2ccc(F)c(C(F)(F)F)c12 (single isomer, unassigned) [compound 4801]
- Atrial EC25 [1, 4]: 0.28 µM
- Ventricular EC25 [2, 5]: 100.00 µM
- Skeletal EC25 [3, 6]: 0.28 µM

Compound: Cc1nccc2[nH]c(=O)c(CC(=O)N[C@H]3CCc4cc(F)cc(F)c43)c(C)c12 [compound 406]
- Atrial EC25 [1, 7]: 0.10 µM
- Ventricular EC25 [2, 8]: 0.38 µM
- Skeletal EC25 [3, 9]: 0.02 µM

Compound: Cc1c([C@@H](C)C(=O)N[C@H](C)c2ncc(C#N)cc2F)c(=O)[nH]c2ccc(F)c(F)c12 (relative stereo) [compound 2600, Rel-(2R*)-N-[(1R)-1-(5-cyano-3-fluoropyridin-2-yl)ethyl]-2-(5,6-difluoro-4-methyl-2-oxo-1H-quinolin-3-yl) propanamide]
- Atrial EC25 [1, 4]: 0.67 µM
- Ventricular EC25 [2, 5]: 100.00 µM
- Skeletal EC25 [3, 6]: 100.00 µM

Compound: Cc1nccc2[nH]c(=O)c(CC(=O)N[C@@H](CCO)c3ccc(F)cc3F)c(C)c12 (single isomer, unassigned) [compound 342]
- Atrial EC25 [1, 7]: 3.65 µM
- Ventricular EC25 [2, 8]: 52.00 µM
- Skeletal EC25 [3, 9]: 11.14 µM

Compound: Cc1nccc2[nH]c(=O)c(CC(=O)NC[C@@H](CO)c3ccccc3)c(C)c12 [compound 494]
- Atrial EC25 [1, 7]: 100.00 µM
- Ventricular EC25 [2, 8]: 100.00 µM
- Skeletal EC25 [3, 9]: 100.00 µM

Compound: Cc1c(C2(C(=O)N[C@@H](C)c3ncc(C#N)cn3)CC2)c(=O)[nH]c2ccc(F)c(C#N)c12 (single isomer, unassigned) [compound 2532]
- Atrial EC25 [1, 4]: 0.89 µM
- Ventricular EC25 [2, 5]: 45.96 µM
- Skeletal EC25 [3, 6]: 1.49 µM

Compound: Cc1c(CC(=O)N[C@@H](C)c2ncc(C#N)cc2F)c(=O)[nH]c2ccnc(C#N)c12 (single isomer, unassigned) [compound 285]
- Atrial EC25 [1, 7]: 0.28 µM
- Ventricular EC25 [2, 8]: 0.16 µM
- Skeletal EC25 [3, 9]: 0.02 µM

Compound: CNc1c(CC(=O)N[C@@H](C)c2ccc(F)cc2F)c(=O)[nH]c2ccccc12 [compound 128]
- Atrial EC25 [1, 4]: 0.90 µM
- Ventricular EC25 [2, 5]: 9.83 µM
- Skeletal EC25 [3, 6]: 0.17 µM

Compound: Cc1c(C(F)(F)C(=O)N[C@@H](C)c2ccc(F)cc2F)c(=O)[nH]c2ccnc(Cl)c12 [compound 401]
- Atrial EC25 [1, 7]: 0.05 µM
- Ventricular EC25 [2, 8]: 0.20 µM
- Skeletal EC25 [3, 9]: 0.02 µM

Compound: Cc1nccc2[nH]c(=O)c(CC(=O)N[C@H](CO)c3ccc(F)cc3F)c(C)c12 [compound 498]
- Atrial EC25 [1, 7]: 100 µM
- Ventricular EC25 [2, 8]: 100 µM
- Skeletal EC25 [3, 9]: 7.2 µM
